Reference: article PMC12833874 (Journal of Medicinal Chemistry, 2025)
Where two headings read alike, the source gives them in different places.

Key:
NOPr [1] = molecular target: T1, NOPr (Homo sapiens, UniProt P41146); test: BRET G-protein activation (GPA) assay, Gαi2, agonist and antagonist mode, Flp-In-NOPr-CHO cells; format: cell-based; conditions: for reduction in inhibitory potency from N-Boc congener to fluorescent ligand: 11g to 13g, 11h to 13h and 14h
Description: The functional activity of congeners 11a-h was assessed in a bioluminescence resonance energy transfer (BRET) assay measuring NOPr activation of the Gαi2 G protein through release of Gβγ subunits in Flp-In-NOPr-Chinese hamster ovary (CHO) cells, as summarized in Figure a.
Data represent the mean ± SEM of n = 4 experiments performed in duplicate. (a) Illustrative representation of the GPA assayligand-induced receptor activation causes G protein dissociation, releasing a Venus-tagged Gβγ (acceptor) to interact with a membrane-localized c-terminus of G protein-coupled receptor kinase 3 (masGRK3ct) fused to a renilla luciferase enzyme (RLuc8) (donor). […] After a 10 min incubation with the R-Luc substrate coelenterazine and NOPr ligands, luminescence was measured to quantify GPA as a BRET ratio between acceptor λem 535 nm/donor λem 475 nm.
Flp-In CHO cells stably expressing SNAP-NOPr were transiently transfected with Gαi2 (2 μg), Gβ1-Venus (156–259)­(1 μg), Gγ2-Venus­(1–155)­(1 μg), and masGRK3ct-RLuc8 (1 μg) using polyethylenimine (PEI) in a 1:6 DNA/PEI ratio. The mixture was suspended in sterile NaCl, vortexed, and then incubated (10 min, RT), before being added to the cells in fresh antibiotic media DMEM (7 mL) supplemented with 10% FBS (v/v) and penicillin (50 units·mL^–1)- streptomycin (50 μg.mL^–1).
Cells were then incubated with coelenterazine H (NanoLight Technology) (10 μL/well, 50 μM, 5 min, RT) before ligands were added to the 96-well plate with final ligand concentrations ranging from (10 μM-0.01 nM). […] Cells were incubated in the plate reader, and luminescence was read using dual emission detection at 475 nm (Rluc8 Donor) and 535 nm emission (BRET signal) at 10 and 30 min. Plates were read on a PHERAstar (BMG Lab Tech), and data were exported through MARS and analyzed using Prism (GraphPad, Version 10).

SNAP-NOPr = molecular target: T2, SNAP-NOPr (Homo sapiens, UniProt P41146); test: Confocal imaging of fluorescent ligand binding, live FlpIn CHO cells stably expressing SNAP-NOPr; format: cell-based; conditions: for fluorescent ligand binding (confocal images): 1 μM, 30 min at 37 °C, live cells
T2 construct: expressed in transfected cells
Description: To first assess whether the library of fluorescent ligands (13a-h and 14h) can specifically label the NOPr, single time point confocal images of live FlpIn CHO cells stably expressing SNAP-NOPr were captured. Cells were incubated with fluorescent ligands 13a-h and 14h (1 μM) to assess the fluorescent ligand binding.
3 Single time point confocal images of live FlpIn CHO cells stably expressing SNAP-NOPr. Cells were labeled with SNAP-AF488 (cyan) to visualize SNAP-NOPr expression (a–d) and incubated for 30 min at 37 °C with fluorescent ligands 13e–h (1 μM) (magenta) to visualize fluorescent ligand binding (e-h).
For all experiments, live cell single time point confocal images were captured using a Zeiss Cell Discoverer 7 LSM 900 high-content automated confocal microscope. Two images per well were captured using a 10× objective and the Cy5 channel (650 λex, 673 λem), the AF488 (495λex, 520 λem) channel, and the CFP (433λex, 475 λem) channel. All cells were imaged in an imaging buffer containing (2 mM sodium pyruvate, 145 mM NaCl, 10 mM D-glucose, 5 mM KCl, 1 mM MgSO4·7H2O, 10 mM HEPES, 1.3 mM CaCl2 dihydrate, and 1.5 mM NaHCO3).
Stably expressing SNAP-NOPr FlpIn-CHO cells suspended in DMEM (D6421) (100 μL) were seeded (10,000 cells/well) into 96-well poly-D-lysine (PDL)-coated Greiner black polyester plates. Cells were incubated for 48 h at 37 °C and 5% CO2 prior to imaging.
Before measurement, the media were removed, and cells were washed with 90 μL of imaging buffer. Cells were then incubated with SNAP-AF488 (New England Biolabs) (0.5 μg·mL^–1) in imaging buffer for 30 min at 37 °C. After incubation, the SNAP-AF488 solution was aspirated and cells were rinsed twice with imaging buffer (90 μL). […] Cells were incubated for 30 min at 37 °C and 5% CO2 before the images were captured.

NOPr [2] = molecular target: T1, NOPr; test: TR-FRET equilibrium saturation binding, Lumi4Tb-SNAP-NOPr CHO membranes
Description: The levels of specific binding (total – nonspecific) were calculated and used to determine the dissociation constant (K D) as a measure of affinity.
For 13g-h, the homogeneous TR-FRET (HTRF) ratio [(acceptor λem (665 nM)/donor λem (620 nM) × 10000)] is plotted against ligand concentration (nM) for the total binding (solid circle) and nonspecific binding (NSB) (hollow circle). […] For end point saturation binding assays, data represent the mean ± SEM of n = 3 experiments performed in duplicate, and for kinetic binding studies, all data represent the mean of n = 3 experiments.
All ligands were prepared in TR-FRET buffer, consisting of Hanks’ Balanced Salt Solution (Sigma-Aldrich H6648) (KCl 5 mM, KH2PO4 0.4 mM, NaHCO3 4 mM, NaCl 137 mM, Na2HPO4 0.3 mM), Pluronic-F127 (0.02% w/v), DMSO (1% v/v), and glucose (1 mg.mL^–1), adjusted to pH 7.4. Membrane aliquots were thawed on ice prior to use, and membrane suspensions [membrane (0.05 μg.μL^–1), Gpp­(NH)p (100 μM), and saponin (50 μg.mL^–1)] were prepared in TR-FRET buffer. To ensure homogeneity, the membrane suspension was passed through a 27-gauge needle before use. Measurements were made in low-binding 384-well optiplates (PerkinElmer) on a PHERAstar (BMG Labtech) plate reader using the HTRF module [337 nm excitation with dual emission detection at 620 nm (terbium cryptate donor) and 665 nm emission (fluorescent ligand acceptor)] at a focal height of 11.4 mm. Integration was started 60 μs post irradiation (4 flashes/well) for 400 μs, all saturation and competition binding experiments were carried out in duplicate wells, and data were reported as the mean HTRF ratio ((acceptoremission/donoremission)×10,000) from 3 repeat measurements ±SEM.
Membrane solution (20 μL) was added, and the measurement was taken after a 2 h incubation at 37 °C. All data were converted to specific binding (total – nonspecific) and fitted using eq to determine K D. 2 HTRFratio×10,000=Bmax[FL]/(KD+[FL])

[3] = IC50, antagonist mode, inhibition of EC80 concentration of N/OFQ, n = 4 in duplicate
[4] = NOP pIC50 ± SEM, supplementary csv, GPA assay antagonist mode
[5] = pIC50 ± SEM, antagonist mode, inhibition of EC80 concentration of N/OFQ, n = 4 in duplicate
[6] = NOP IC50 (nM), supplementary csv, GPA assay antagonist mode
[7] = antagonist mode, inhibition of EC80 concentration of N/OFQ, n = 4 in duplicate, read-out: IC50 (converted)
[8] = antagonist mode, inhibition of EC80 concentration of N/OFQ, n = 4 in duplicate, read-out: pIC50 ± SEM (converted)
[9] = supplementary csv, GPA assay antagonist mode, read-out: NOP pIC50 ± SEM (converted)
[10] = supplementary csv, GPA assay antagonist mode, read-out: NOP IC50 (converted)

T1 sequence (P41146 whole entry): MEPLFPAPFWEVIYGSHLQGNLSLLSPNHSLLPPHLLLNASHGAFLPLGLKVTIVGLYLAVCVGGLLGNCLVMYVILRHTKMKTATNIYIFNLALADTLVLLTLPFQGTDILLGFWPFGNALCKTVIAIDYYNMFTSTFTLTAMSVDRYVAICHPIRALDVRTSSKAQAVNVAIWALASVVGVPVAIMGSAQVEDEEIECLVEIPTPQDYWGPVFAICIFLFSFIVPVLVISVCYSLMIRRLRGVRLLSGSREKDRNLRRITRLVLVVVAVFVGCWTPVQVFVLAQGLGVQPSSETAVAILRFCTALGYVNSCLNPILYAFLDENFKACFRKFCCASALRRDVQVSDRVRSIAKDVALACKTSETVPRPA
T2 sequence (P41146 whole entry): as above

Row | Compound | IC50 (NOPr [1]; [3]) [nM] | IC50 (NOPr [1]; [4]) [nM] | IC50 (NOPr [1]; [5]) [nM] | IC50 (NOPr [1]; [7]) [nM] | IC50 (NOPr [1]; [8]) [nM] | IC50 (NOPr [1]; [9]) [nM] | IC50 (NOPr [1]; [10]) [nM] | other results
1 | C[C@H](NC(=O)OC(C)(C)C)C(=O)N1CCC[C@@H]1C(=O)NCCCN1CCC2(CC1)OCc1ccccc12 [11a, tert-Butyl ((S)-1-((R)-2-((3-(3H-Spiro[isobenzofuran-1,4′-piperidin]-1′-yl)propyl)carbamoyl)pyrrolidin-1-yl)-1-oxopropan-2-yl)carbamate] | 11700 | 11700 | 12600 | – | – | – | – | –
2 | CC(C)(C)OC(=O)NCCC(=O)N1CCC[C@@H]1C(=O)NCCCN1CCC2(CC1)OCc1ccccc12 [11b, tert-Butyl (R)-(3-(2-((3-(3H-Spiro[isobenzofuran-1,4′-piperidin]-1′-yl)propyl)carbamoyl)pyrrolidin-1-yl)-3-oxopropyl)carbamate] | 7800 | 7760 | 7940 | – | – | – | – | IC50 (NOPr [1]; [6]): 7760 nM
3 | CC(C)(C)OC(=O)NCCCC(=O)N1CCC[C@@H]1C(=O)NCCCN1CCC2(CC1)OCc1ccccc12 [11c, tert-Butyl (R)-(4-(2-((3-(3H-Spiro[isobenzofuran-1,4′-piperidin]-1′-yl)propyl)carbamoyl)pyrrolidin-1-yl)-4-oxobutyl)carbamate] | – | – | – | 4900 | 5010 | 4900 | – | –
4 | CC(C)(C)OC(=O)NCCCCC(=O)N1CCC[C@@H]1C(=O)NCCCN1CCC2(CC1)OCc1ccccc12 [11d, tert-Butyl (R)-(5-(2-((3-(3H-Spiro[isobenzofuran-1,4′-piperidin]-1′-yl)propyl)carbamoyl)pyrrolidin-1-yl)-5-oxopentyl)carbamate] | – | – | – | 1200 | 1260 | 1230 | 1230 | –
5 | CC(C)(C)OC(=O)NCCOc1cccc(C(=O)N2CCC[C@@H]2C(=O)NCCCN2CCC3(CC2)OCc2ccccc23)c1 [11e, tert-Butyl (R)-(2-(3-(2-((3-(3H-Spiro[isobenzofuran-1,4′-piperidin]-1′-yl)propyl)carbamoyl)pyrrolidine-1-carbonyl)phenoxy)ethyl)carbamate] | – | – | – | 370 | 398 | 372 | 372 | –
6 | CC(C)(C)OC(=O)NCCOc1ccc(C(=O)N2CCC[C@@H]2C(=O)NCCCN2CCC3(CC2)OCc2ccccc23)cc1 [11f, tert-Butyl (R)-(2-(4-(2-((3-(3H-Spiro[isobenzofuran-1,4′-piperidin]-1′-yl)propyl)carbamoyl)pyrrolidine-1-carbonyl)phenoxy)ethyl)carbamate] | – | – | – | 270 | 251 | 269 | 269 | –
7 | CC(C)(C)OC(=O)NCCOc1cccc(CN2CCC[C@@H]2C(=O)NCCCN2CCC3(CC2)OCc2ccccc23)c1 [11g, tert-Butyl (R)-(2-(3-((2-((3-(3H-Spiro[isobenzofuran-1,4′-piperidin]-1′-yl)propyl)carbamoyl)pyrrolidin-1-yl)methyl)phenoxy)ethyl)carbamate] | 20 | 19.5 | 20 | – | – | – | – | IC50 (NOPr [1]; [6]): 19.5 nM
8 | CC(C)(C)OC(=O)NCCOc1ccc(CN2CCC[C@@H]2C(=O)NCCCN2CCC3(CC2)OCc2ccccc23)cc1 [11h, tert-Butyl (R)-(2-(4-((2-((3-(3H-Spiro[isobenzofuran-1,4′-piperidin]-1′-yl)propyl)carbamoyl)pyrrolidin-1-yl)methyl)phenoxy)ethyl)carbamate] | 5.5 | 5.5 | 5.01 | – | – | – | – | –
9 | CN1/C(=C/C=C/C=C/C2=[N+](CCCCCC(=O)NCCOc3cccc(C(=O)N4CCC[C@@H]4C(=O)NCCCN4CCC5(CC4)OCc4ccccc45)c3)c3ccc(S(=O)(=O)[O-])cc3C2(C)C)C(C)(C)c2cc(S(=O)(=O)[O-])ccc21.[K+] [13e, Potassium 1-(6-((2-(3-((R)-2-((3-(3H-Spiro[isobenzofuran-1,4′-piperidin]-1′-yl)propyl)carbamoyl)pyrrolidine-1-carbonyl)phenoxy)ethyl)amino)-6-oxohexyl)-3,3-dimethyl-2-((1E,3E)-5-((E)-1,3,3-trimethyl-5-sulfonatoindolin-2-ylidene)penta-1,3-dien-1-yl)-3H-indol-1-ium-5-sulfonate] | – | – | – | – | – | – | – | fluorescent ligand binding (confocal images) (SNAP-NOPr): Binding was observed
10 | CN1/C(=C/C=C/C=C/C2=[N+](CCCCCC(=O)NCCOc3ccc(C(=O)N4CCC[C@@H]4C(=O)NCCCN4CCC5(CC4)OCc4ccccc45)cc3)c3ccc(S(=O)(=O)[O-])cc3C2(C)C)C(C)(C)c2cc(S(=O)(=O)[O-])ccc21.[K+] [13f, Potassium 1-(6-((2-(4-((R)-2-((3-(3H-Spiro[isobenzofuran-1,4′-piperidin]-1′-yl)propyl)carbamoyl)pyrrolidine-1-carbonyl)phenoxy)ethyl)amino)-6-oxohexyl)-3,3-dimethyl-2-((1E,3E)-5-((E)-1,3,3-trimethyl-5-sulfonatoindolin-2-ylidene)penta-1,3-dien-1-yl)-3H-indol-1-ium-5-sulfonate] | – | – | – | – | – | – | – | fluorescent ligand binding (confocal images) (SNAP-NOPr): Binding was observed
11 | CN1/C(=C/C=C/C=C/C2=[N+](CCCCCC(=O)NCCOc3ccc(CN4CCC[C@@H]4C(=O)NCCCN4CCC5(CC4)OCc4ccccc45)cc3)c3ccc(S(=O)(=O)[O-])cc3C2(C)C)C(C)(C)c2cc(S(=O)(=O)[O-])ccc21.[K+] [13h, Potassium 1-(6-((2-(4-(((R)-2-((3-(3H-Spiro[isobenzofuran-1,4′-piperidin]-1′-yl)propyl)carbamoyl)pyrrolidin-1-yl)methyl)phenoxy)ethyl)amino)-6-oxohexyl)-3,3-dimethyl-2-((1E,3E)-5-((E)-1,3,3-trimethyl-5-sulfonatoindolin-2-ylidene)penta-1,3-dien-1-yl)-3H-indol-1-ium-5-sulfonate] | – | – | – | – | – | – | – | fluorescent ligand binding (confocal images) (SNAP-NOPr): more pronounced binding; reduction in inhibitory potency from N-Boc congener to fluorescent ligand (NOPr [1]): ≥ 20 fold; binding behaviour at the highest concentration tested (NOPr [2]; 400 nM): saturable binding with minimal nonspecific binding; higher affinity of 13h than 13g (NOPr [2]; saturation KD): 5 fold
12 | O=C(CCCCCNC(=O)COc1ccc(/C=C/C2=[N+]3C(=Cc4ccc(-c5cccs5)n4[B-]3(F)F)C=C2)cc1)NCCOc1ccc(CN2CCC[C@@H]2C(=O)NCCCN2CCC3(CC2)OCc2ccccc23)cc1 [14h, (R,E)-N-(3-(3H-Spiro[isobenzofuran-1,4′-piperidin]-1′-yl)propyl)-1-(4-(2-(6-(2-(4-(2-(5,5-Difluoro-7-(thiophen-2-yl)-5H-4λ^4,5λ^4-dipyrrolo[1,2-c:2′,1′-f][1,3,2]diazaborinin-3-yl)vinyl)phenoxy)acetamido)hexanamido)ethoxy)benzyl)pyrrolidine-2-carboxamide] | – | – | – | 130 | 126 | – | 126 | specificity of labeling: displacement by SB-612111 / nonspecific labeling (SNAP-NOPr; 1 μM ligand, SB-612111 1 μM): significant nonspecific labeling; reduction in inhibitory potency from N-Boc congener to fluorescent ligand (NOPr [1]): ≥ 20 fold; functional agonism at the NOPr (NOPr [1]; agonist mode, absence of N/OFQ): no functional agonism
